Measured values taken from patent US20110105436A1, “HETEROARYL COMPOUNDS, COMPOSITIONS, AND METHODS OF USE IN CANCER TREATMENT” (AUCKLAND UNISERVICES LIMITED, priority 2008, published 2011).

Tests used:
[1] = system: SN12C tumors; assay: Tumor growth of SN12C cells (wild-type VHL) in scid mice; type: in vivo; conditions: daily intraperitoneal treatment, FIG. 1E
Experimental: (§1) In vivo studies. 2−3×10^6 SN12C and SN12C-VHL shRNA cells were injected in male scid mice 4-6 weeks old. When tumor volume reached 150 mm^3, mice were randomized into vehicle control group or STF-62247 treatment group. Mice were treated every day with […] of STF-62247 intraperitoneally. Tumor growth was measured every 2-3 days after the drug treatment was started.
(§2) A. RCC4 and RCC4/VHL cells were labeled with EYFP and the effect of STF-62247 was monitored by fluorescence in each cell type separately. Cells are pseudocolored. B. Clonogenic assay in RCC4, RCC4/VHL, SN12C, SN12C-VHL shRNA cells in the presence of STF-62247 (0-30 μM). Each point of the cell survival is calculated by the average of three different experiments in triplicate as the percent of treated on untreated plate. The error bars represented the standard error of the mean (SEM). C. Upper Panel, clonogenic assay in RCC4 infected with HIF-1α or HIF-2α shRNA by retroviral infection in presence of drug in same conditions described above. Bottom panel, HIF-1α or HIF-2α protein expression evaluated by western blot in RCC4 cells with HIF-1α or HIF-2α shRNA. Tubulin is used as loading control. […] Tumor volume was measured every 2-3 days and data are represented in fold. Five tumors in each condition were analyzed where * p<0.05, **p<0.01 and ***p<0.005.

[2] = system: RCC4 and RCC4/VHL cells; assay: DNA damage: comet assay and p53 immunoblot; type: cell-based
Experimental: B. XTT assay in RCC4 and RCC4/VHL in presence of STF-62247 (0-40 μM). Each point of the cell survival is calculated by the average of three different experiments in duplicate as the percent of treated on untreated plate. The error bars are represented as the standard error of the mean (SEM) C. qRT-PCR for Glutl, VEGF, PDF and PGK in RCC4 cells with or without HIF-1a, HIF-2a shRNA and in RCC4/VHL. D. Hoescht staining in RCC4 and RCC4/VHL cells with 1.25 μM of STF-62247 for 2 days. Camptothecin was used as positive control E. FACS analysis for apoptosis after an annexin V-FITC staining in presence or absence of propidium iodine (PI) in cells after a treatment in same conditions than in C. F. Immunoblot for active caspase-3 in RCC4 and RCC4/VHL following treatment with 1.25 μM of STF-62247 for 24 hours. Staurosporine was used as positive control (0.2 μM for 24 hours). G,H. Immunostaining of caspase-3 and Ki67 respectively in SN12C and SN12C+shVHL tumor samples untreated or treated with 30 μM of STF-62247.1. Immunoblot for p53 and SerlS phospho-p53 in RCC4 and RCC4/VHL cells after a treatment with 1.25 μM of STF-62247 or doxorubicin for 24 hours.

[3] = system: SN12C-VHL shRNA tumors; assay: Tumor growth of SN12C-VHL shRNA cells in scid mice; type: in vivo; conditions: VHL-deficient tumors, daily intraperitoneal treatment, FIG. 1E
Experimental: as §1, §2

[4] = system: RCC4, RCC4/VHL, SN12C and SN12C-VHL shRNA cells; assay: Clonogenic cell survival assay; type: cell-based
Experimental: Clonogenic Cell Survival Assay. RCC4, RCC4/VHL, SN12C and SN12C-VHL shRNA were plated at 300 cells per 60 mm tissue culture dish. The following day, vehicle or STF-62247 was added and cells were incubated in the presence of drug for 10 days in RCC4 and RCC4/VHL and 7-10 days for SN12C and SN12C-VHL shRNA. The colonies were stained with crystal violet, and quantified. Each experiment was performed at least three times in triplicate.
as §2

For `Cc1cccc(Nc2nc(-c3ccncc3)cs2)c1` [Compound 5, N-(3-Methylphenyl)-4-(4-pyridinyl)-1,3-thiazol-2-amine], the tumor growth [1] was “did not have any effect on the growth of SN12C tumor cells that have wild-type VHL”, the “phosphorylation of p53 on serine 15 and total p53 levels” value ([2]; 1.25 μM, 24 hours, FIG. 7I) was “unaffected” and the “DNA damage by comet assay” value ([2]; data not shown) was “did not induce DNA damage”. For the same compound, the tumor growth [3] was “significantly reduced tumor growth in VHL-deficient cells”, the “dependence of cytotoxicity on HIF” value ([4]; RCC4 with HIF-1α or HIF-2α shRNA, RCC4/VHL with stable HIF-2α) was “induces cytotoxicity in VHL-null cells in a HIF-independent manner” and the “selective toxicity in clonogenic assays” value ([4]; VHL-deficient versus VHL wild-type cells, 0-30 μM, FIG. 1B) was “selectively toxic to VHL-deficient cells compared to their VHL wild-type counterparts”.
